Results: patent publication US10314806B2 (SICHUAN JIUZHANG BIOLOGICAL SCIENCE AND TECHNOLOGY CO., LTD., priority 2014, dated 2019)

Columns and labels:
[1] = test system: human brain glioma; assay: Inhibition of mice-transplanted human brain glioma; assay type: in vivo; conditions: 15 days, mice
Protocol: Human brain glioma cell lines were obtained from Key Laboratory of Transplant Engineering and Immunology, Ministry of health, West China Hospital, Sichuan University.
(1) Model establishment Mice were divided into groups, 10 mice for each group. The solution of brain glioblastoma cell lines was suitably diluted, and inoculated in cortex of left temporal lobe of mice, respectively.
Administration and intervention 24 h after inoculation, mice in each group were administrated by intraperitoneal injection. […] Each group was administrated for successive 15 days.
Determination of tumor inhibitory rate On the last day, the administration was stopped, and all mice were sacrificed and dissected. Tumor tissues were stripped and weighed. Tumor inhibitory rate %=(The mean tumor weight of control group−The mean tumor weight of drug groups)[The mean tumor weight of control group]×100%.
Statistical method The variance analysis of data was performed using the statistical program software package (SPSS13.0 for Windows), and p<0.05 was considered to be a statistically significant difference.

[2] = test system: chemical liver injury (rat alcoholic fatty liver model); assay: Protective effect on chemical liver injury (rat alcoholic fatty liver model); assay type: in vivo, rats; conditions: 30 days; for GSH / SOD: liver homogenate; for ALT / AST: serum
Protocol: Experimental grouping and dose design: Female SD rats were randomly divided to groups, 10 rats for each group, […], 70 mg·kg^−1, 85 mg·kg^−1, 100 mg·kg^−1, 120 mg·kg^−1, 140 mg·kg^−1, 160 mg·kg^−1, 180 mg·kg^−1, […], together with a negative control group and 50% ethanol model control group. Liver injury model was induced by ethanol (analytical pure).
Determination of ALT, AST, TG in serum of rats; Determination of SOD, MDA, reduced glutathione (GSH) in liver homogenate.
Statistics of experimental data: Statistical analysis of experimental data was performed using software package of SPSS 19.0 for windows.

[3] = test system: Lewis lung cancer; assay: Inhibition of mice-transplanted tumor of Lewis lung cancer C57BL/6; assay type: in vivo; conditions: 12 times
Protocol: Animal C57BL/6 mice, body weight 13˜20 g, half male and half female.
Cell Lines Lewis cells were mice lung cancer cells, and grew adhering to the wall in RPMI-1640 media containing 10% calf serum, 100 U·ml^−1 penicillin, 100 μg·ml^−1 streptomycin, and were cultured in an incubator at 37° C. under 5% CO2, followed by changing the medium and subculturing every two or three days.
Viable cells were counted by trypan blue staining. Cell suspension was subcutaneously inoculated at the left forelimb armpit of mice at 0.2 ml/animal (containing about 1×10^7 cells), and after tumor grew to 1 cm×1 cm×1 cm, mice were used in experiment. Mice tumors were aseptically stripped, and washed with Hank's solution thrice, to remove blood, fat and necrotic tissues. Tumors were cut to broken pieces of 1 mm×1 mm×1 mm, and washed with Hank's solution twice, to which physiological saline was added at a ratio of (1 g:3 ml), and then ground in a glass homogenizer and filtered by 80-100 mesh sieve to make a suspension of single cell. Viable cells were counted by trypan blue staining.
On the second day after inoculation, a dosage of 0.2 ml·10 g^−1 was administrated to each group by peritoneal injection (ip) for successive 12 times, once a day. When the tumor weight in negative control group was more than 1.0 g (tumor volume being about 0.5 cm^3), the experiment was stopped, and mice were sacrificed by cervical vertebrae removal and weighed. Tumors were stripped to calculate inhibitory rate.

[4] = 1 mg·kg^−1 intraperitoneal injection
[5] = 5 mg·kg^−1 intraperitoneal injection
[6] = 30 mg·kg^−1 intraperitoneal injection
[7] = 40 mg·kg^−1 intraperitoneal injection
[8] = 70 mg·kg^−1 intraperitoneal injection
[9] = 80 mg·kg^−1 intraperitoneal injection
[10] = 90 mg·kg^−1 intraperitoneal injection
[11] = 100 mg·kg^−1 intraperitoneal injection

Question: Which Inhibitmy rate [1, 4] does the source give for O=C(/C=C/c1ccc(O)c(O)c1)O[C@@H]1C[C@](O)(C(=O)O)C[C@@H](O)[C@H]1O [Commercially available chlorogenic acid, chlorogenic acid, reference compound] here?
Answer: 9.10%

Question: And the Tumor weight [1, 4]?
Answer: 1.319 ± 0.245 g

Question: And the Inhibitmy rate [1, 5]?
Answer: 11.16%

Question: And the Tumor weight [1, 5]?
Answer: 1.289 ± 0.289 g

Question: What about the Inhibitmy rate ([1]; 10 mg·kg^−1 intraperitoneal injection) of the same molecule?
Answer: 19.09%

Question: What about the Inhibitmy rate ([1]; 20 mg·kg^−1 intraperitoneal injection) of the same molecule?
Answer: 24.12%

Question: What about the Inhibitmy rate [1, 6] of the same molecule?
Answer: 30.74%

Question: And the Tumor weight [1, 6]?
Answer: 1.005 ± 0.225 g

Question: What about the Inhibitmy rate [1, 7] of the same molecule?
Answer: 31.91%

Question: What about the Tumor weight [1, 7] of the same molecule?
Answer: 0.988 ± 0.025 g

Question: And the Inhibitmy rate ([1]; 50 mg·kg^−1 intraperitoneal injection)?
Answer: 23.85%

Question: What about the Inhibitmy rate ([1]; 60 mg·kg^−1 intraperitoneal injection) of the same molecule?
Answer: 22.47%

Question: What about the Inhibitmy rate [1, 8] of the same molecule?
Answer: 15.58%

Question: What about the Tumor weight [1, 8] of the same molecule?
Answer: 1.225 ± 0.534 g

Question: What about the Inhibitmy rate [1, 9] of the same molecule?
Answer: 12.13%

Question: And the Tumor weight [1, 9]?
Answer: 1.275 ± 0.043 g

Question: And the Inhibitmy rate [1, 10]?
Answer: 11.30%

Question: What about the Tumor weight [1, 10] of the same molecule?
Answer: 1.287 ± 0.323 g

Question: And the Inhibitmy rate [1, 11]?
Answer: 7.79%

Question: And the Tumor weight [1, 11]?
Answer: 1.338 ± 0.187 g

Question: What about the GSH ([2]; 10 mg·kg^−1 intragastric) of the same molecule?
Answer: 12.57 ± 3.84 mg/g

Question: And the SOD ([2]; 10 mg·kg^−1 intragastric)?
Answer: 26.15 ± 2.45 nmol/mg

Question: What about the ALT ([2]; 10 mg·kg^−1 intragastric) of the same molecule?
Answer: 58.67 ± 2.89 U/L

Question: What about the AST ([2]; 10 mg·kg^−1 intragastric) of the same molecule?
Answer: 194.12 ± 6.32 U/L

Question: What about the GSH ([2]; 20 mg·kg^−1 intragastric) of the same molecule?
Answer: 13.62 ± 4.87 mg/g

Question: And the SOD ([2]; 20 mg·kg^−1 intragastric)?
Answer: 27.24 ± 2.78 nmol/mg

Question: And the ALT ([2]; 20 mg·kg^−1 intragastric)?
Answer: 57.41 ± 3.15 U/L

Question: And the AST ([2]; 20 mg·kg^−1 intragastric)?
Answer: 193.89 ± 3.84 U/L

Question: What about the GSH ([2]; 35 mg·kg^−1 intragastric) of the same molecule?
Answer: 14.83 ± 5.47 mg/g

Question: What about the SOD ([2]; 35 mg·kg^−1 intragastric) of the same molecule?
Answer: 28.05 ± 1.45 nmol/mg

Question: What about the ALT ([2]; 35 mg·kg^−1 intragastric) of the same molecule?
Answer: 56.84 ± 2.87 U/L

Question: And the AST ([2]; 35 mg·kg^−1 intragastric)?
Answer: 192.12 ± 5.12 U/L

Question: What about the GSH ([2]; 50 mg·kg^−1 intragastric) of the same molecule?
Answer: 15.57 ± 3.16 mg/g

Question: And the SOD ([2]; 50 mg·kg^−1 intragastric)?
Answer: 29.14 ± 3.78 nmol/mg

Question: What about the ALT ([2]; 50 mg·kg^−1 intragastric) of the same molecule?
Answer: 56.88 ± 2.64 U/L

Question: And the AST ([2]; 50 mg·kg^−1 intragastric)?
Answer: 190.56 ± 4.28 U/L

Question: What about the GSH ([2]; 70 mg·kg^−1 intragastric) of the same molecule?
Answer: 16.88 ± 2.78 mg/g

Question: What about the SOD ([2]; 70 mg·kg^−1 intragastric) of the same molecule?
Answer: 30.55 ± 2.05 nmol/mg

Question: What about the ALT ([2]; 70 mg·kg^−1 intragastric) of the same molecule?
Answer: 55.14 ± 1.65 U/L

Question: What about the AST ([2]; 70 mg·kg^−1 intragastric) of the same molecule?
Answer: 190.88 ± 3.65 U/L

Question: And the GSH ([2]; 85 mg·kg^−1 intragastric)?
Answer: 17.37 ± 3.87 mg/g

Question: And the SOD ([2]; 85 mg·kg^−1 intragastric)?
Answer: 31.04 ± 2.58 nmol/mg

Question: And the ALT ([2]; 85 mg·kg^−1 intragastric)?
Answer: 53.24 ± 6.11 U/L

Question: What about the AST ([2]; 85 mg·kg^−1 intragastric) of the same molecule?
Answer: 198.87 ± 2.78 U/L

Question: What about the GSH ([2]; 100 mg·kg^−1 intragastric) of the same molecule?
Answer: 18.00 ± 3.21 mg/g

Question: And the SOD ([2]; 100 mg·kg^−1 intragastric)?
Answer: 32.54 ± 3.47 nmol/mg

Question: And the AST ([2]; 100 mg·kg^−1 intragastric)?
Answer: 187.12 ± 4.57 U/L

Question: What about the GSH ([2]; 120 mg·kg^−1 intragastric) of the same molecule?
Answer: 18.24 ± 6.48 mg/g

Question: And the SOD ([2]; 120 mg·kg^−1 intragastric)?
Answer: 33.65 ± 5.01 nmol/mg

Question: What about the AST ([2]; 120 mg·kg^−1 intragastric) of the same molecule?
Answer: 184.25 ± 3.49 U/L

Question: What about the GSH ([2]; 140 mg·kg^−1 intragastric) of the same molecule?
Answer: 18.65 ± 3.48 mg/g

Question: And the SOD ([2]; 140 mg·kg^−1 intragastric)?
Answer: 33.29 ± 2.68 nmol/mg

Question: What about the AST ([2]; 140 mg·kg^−1 intragastric) of the same molecule?
Answer: 182.36 ± 3.87 U/L

Question: And the GSH ([2]; 160 mg·kg^−1 intragastric)?
Answer: 17.55 ± 4.87 mg/g

Question: And the SOD ([2]; 160 mg·kg^−1 intragastric)?
Answer: 33.12 ± 1.75 nmol/mg

Question: What about the AST ([2]; 160 mg·kg^−1 intragastric) of the same molecule?
Answer: 180.15 ± 6.48 U/L

Question: What about the GSH ([2]; 180 mg·kg^−1 intragastric) of the same molecule?
Answer: 17.98 ± 5.94 mg/g

Question: And the SOD ([2]; 180 mg·kg^−1 intragastric)?
Answer: 32.87 ± 2.16 nmol/mg

Question: What about the AST ([2]; 180 mg·kg^−1 intragastric) of the same molecule?
Answer: 179.54 ± 4.16 U/L

Question: What about the GSH ([2]; 200 mg·kg^−1 intragastric) of the same molecule?
Answer: 16.49 ± 4.21 mg/g

Question: What about the SOD ([2]; 200 mg·kg^−1 intragastric) of the same molecule?
Answer: 31.11 ± 2.54 nmol/mg

Question: And the AST ([2]; 200 mg·kg^−1 intragastric)?
Answer: 185.48 ± 3.94 U/L

Question: What about the GSH ([2]; 220 mg·kg^−1 intragastric) of the same molecule?
Answer: 15.31 ± 3.46 mg/g

Question: And the SOD ([2]; 220 mg·kg^−1 intragastric)?
Answer: 28.15 ± 2.04 nmol/mg

Question: What about the AST ([2]; 220 mg·kg^−1 intragastric) of the same molecule?
Answer: 188.34 ± 5.87 U/L

Question: What about the Inhibitory rate ([3]; 1 mg·kg^−1 ip once a day) of the same molecule?
Answer: 3.2%

Question: And the Tumor weight ([3]; 1 mg·kg^−1 ip once a day)?
Answer: 1.437 ± 0.466 g

Question: And the Inhibitory rate ([3]; 5 mg·kg^−1 ip once a day)?
Answer: 6.6%

Question: What about the Tumor weight ([3]; 5 mg·kg^−1 ip once a day) of the same molecule?
Answer: 1.386 ± 0.398 g

Question: What about the Inhibitory rate ([3]; 10 mg·kg^−1 ip once a day) of the same molecule?
Answer: 23.5%

Question: What about the Inhibitory rate ([3]; 20 mg·kg^−1 ip once a day) of the same molecule?
Answer: 32.9%

Question: And the Tumor weight ([3]; 20 mg·kg^−1 ip once a day)?
Answer: 0.996 ± 0.428 g

Question: What about the Inhibitory rate ([3]; 30 mg·kg^−1 ip once a day) of the same molecule?
Answer: 32.5%

Question: And the Tumor weight ([3]; 30 mg·kg^−1 ip once a day)?
Answer: 1.001 ± 0.204 g

Question: And the Inhibitory rate ([3]; 40 mg·kg^−1 ip once a day)?
Answer: 31.8%

Question: What about the Tumor weight ([3]; 40 mg·kg^−1 ip once a day) of the same molecule?
Answer: 1.012 ± 0.369 g

Question: What about the Inhibitory rate ([3]; 50 mg·kg^−1 ip once a day) of the same molecule?
Answer: 25.3%

Question: And the Inhibitory rate ([3]; 60 mg·kg^−1 ip once a day)?
Answer: 21.6%

Question: What about the Inhibitory rate ([3]; 70 mg·kg^−1 ip once a day) of the same molecule?
Answer: 17.8%

Question: And the Tumor weight ([3]; 70 mg·kg^−1 ip once a day)?
Answer: 1.220 ± 0.237 g

Question: What about the Inhibitory rate ([3]; 80 mg·kg^−1 ip once a day) of the same molecule?
Answer: 14.2%

Question: What about the Tumor weight ([3]; 80 mg·kg^−1 ip once a day) of the same molecule?
Answer: 1.273 ± 0.511 g

Question: And the Inhibitory rate ([3]; 90 mg·kg^−1 ip once a day)?
Answer: 12.4%

Question: And the Tumor weight ([3]; 90 mg·kg^−1 ip once a day)?
Answer: 1.300 ± 0.462 g

Question: And the Inhibitory rate ([3]; 100 mg·kg^−1 ip once a day)?
Answer: 8.6%

Question: What about the Tumor weight ([3]; 100 mg·kg^−1 ip once a day) of the same molecule?
Answer: 1.356 ± 0.338 g
